According to patent US20210096127A1, “MEANS AND METHODS FOR MONITORING SCAR DEVELOPMENT” (HELMHOLTZ ZENTRUM MÜNCHEN - DEUTSCHES FORSCHUNGSZENTRUM FÜR …, priority 2018, published 2021):
Where a name gives a salt, the structure may show the parent alone.

Tests used:
SCAD = assay: Chemical screening with the SCAD (Scar-in-a-Dish) assay; assay type: cell-based, mice; conditions: 2.5 μM final concentration
Description: Dorsal skins were collected from C57BL/6J or En1^Cre;R26^mTmG or En1^e;R26^VT2/GK3 mice at different ages as indicated, and washed twice with cold DMEM/F12 (Thermo Fisher Scientific 11320074) medium to remove contaminating blood, and washed once with Hank's Balanced Salt Solution (HBSS, Thermo Fisher Scientific 14175095). After careful removal of non-skin tissue at the ventral side with a surgical scalpel, round full-thickness skin pieces were created with disposable Ø 2 mm biopsy punch (Stiefel 270130), and cultured in 300 μl of DMEM/F12 medium containing 10% FBS, 1× GlutaMAX (Thermo Fisher Scientific 35050038), 1× Penicillin/streptomycin (Thermo Fisher Scientific 15140122), and 1× MEM non-essential amino acids (Thermo Fisher Scientific 11140035) in each well of 96-well plates in a humidified 37° C., 5% CO2 incubator. (Note: the 2 mm skin pieces were cultured in medium but not floating at the liquid air surface). Fresh medium was supplied every second day and the skin tissues were harvested at the indicated time points (day 1 to day 5 after culture), with the fresh tissues serving as day 0 control, and fixed in 2% PFA for overnight at 4° C.
D0 SCADs (see Example 2) were first treated with Nefopam from Prestwick chemical library (FDA approved library). The initial concentration of the chemical in library format is 1 mM, dissolved in DMSO. The final concentration of chemical used in FDA-library is 2.5 μM.
All chemicals in the library are the same (1 mM), and they are added by a robot, eg. 0.5 μl chemical per well of 200 μl culture to make 2.5 μM final concentration. SCAD biopsies were prepared in 96-well plate with 200 μl per well, the automated system was used to add the chemical Nefopam.
All the data were compiled on excel sheets and scores were added based on the visual variability observed when compared to the DMSO and media control D5 SCADs.
The chemical Nefopam was selected (see Example 7) and further analyzed on SCAD (see Example 2). The treatment was done in triplicates.

scar formation = conditions: stated as known; inhibitor of scar development; cited from earlier work

CN1CCOC(c2ccccc2)c2ccccc2C1 (stereo not shown) [Prestw-229, Nefopam hydrochloride]
collagen formation in SCAD sections (SCAD; D5 SCAD sections, compared to control SCAD): significantly less
scar formation in the whole-mount image (SCAD; D5 SCAD, 96-well plate, triplicates, compared to control (media treated) SCAD): visually less scar formation
scar development (SCAD; D5 SCAD, FIG. 7): visible reduction of scar development
scar formation (known effect, positive control) (scar formation): known to reduce scar formation
